Reference: patent publication US20260078114A1, “COMPOUND USED AS INHIBITOR OF CDK4 KINASE AND USE THEREOF” (TYK MEDICINES, INC., priority 2022, published 2026)

Experiments:
CDK6/CyclinD3 = CDK6/CyclinD3 (Homo sapiens, UniProt Q00534); test: Kinase activity test (mobility shift assay, EZ Reader), CDK6; format: biochemical; settings: CDK6/CyclinD3 5.00 nM, ATP 350 μM, FL-Peptide34
[1] = tested on: Human breast cancer cell MCF-7; test: Cellular antiproliferative assay (MTT, 5 days), MCF-7; format: cell-based; settings: Homo sapiens, MCF7, 120 h, MCF-7 cells, 5 days incubation
Protocol: (§1) Human breast cancer cell MCF-7, ovarian cancer cell A2780, human mantle cell lymphoma cell JEKO-1. DMEM medium (Bio-Channel), DMSO (dimethyl sulfoxide), MTT (thiazolyl blue), 0.25% EDTA-Tripsin (tryptic digest), 1×PBS (phosphate buffer, PH7.2), 96-well plate (Corning), fetal bovine serum (FBS), 10,000 U/mL penicillin-G/streptomycin, high-speed cryo-centrifuge (EPPENDORF 5810R), enzyme-linked immunoassay (Tecan Spark).
(§2) • A) Tumor cells were cultured in DMEM (high sugar with 10% FBS and 100 U/mL penicillin-G/streptomycin) at 37° C., 5% CO2 and saturated humidity until 80-90% dense. • B) Removed the culture medium from 10 cm Petri dishes; • C) Rinsed the cells once with 10 ml 1×PBS; • D) Added 4 ml 0.25% EDTA-Tripsin into 37° C., 5% CO2 incubator for trypsin digestion for 5 minutes, transferred to 15 ml centrifuge tube, centrifuged at 200 g for 5 minutes, discarded the supernatant to get cell precipitate; • E) Resuspended with 4 ml DMEM medium, counted and adjust to 50,000 cells/ml. • F) Added cell suspension to 96-well plate with 100 μL per well volume and incubated overnight at 37° C., 5% CO2 incubator.
(§3) • A) Preparation of gradient dilution solution of the tested compound: the test compound was configured into 1 mM reservoir solution.
(§4) • A) Taking the cell culture plate and adding 10 μL of 5 mg/ml MTT in the biosafety cabinet; • B) Putting the cell culture plate back into the incubator and continued incubation for 3 hours; • C) Taking the cell culture plate and removing the culture medium, adding 100 μL isopropanol (containing 0.4 mM HCl, 0.1% NP-40), and shaking the bed at room temperature for 30 min; and • D) Determining the absorbance value by selecting 570 nm on a TECAN enzyme-linked immunoassay detector.
(§5) The % Cell Viability was calculated using the following formula:
(§6) [formula] • Lum_HC: 0.1% DMSO control cell reading • Lum_Sample: cell readings with compound added • Lum_LC: Blank medium reading

[2] = tested on: ovarian cancer cell A2780; test: Cellular antiproliferative assay (MTT, 5 days), A2780; format: cell-based, human; settings: Homo sapiens, 120 h, A2780 cells, 5 days incubation
Protocol: as §1, §2, §3, §4, §5, §6

[3] = tested on: human mantle cell lymphoma cell JEKO-1; test: Cellular antiproliferative assay (MTT, 5 days), JEKO-1; format: cell-based; settings: Homo sapiens, 120 h, JEKO-1 cells, 5 days incubation
Protocol: as §1, §2, §3, §4, §5, §6

CDK4/CycD1 = CDK4/CycD1 (Homo sapiens, UniProt P11802); test: Kinase activity test (mobility shift assay, EZ Reader), CDK4
Sequence of CDK4/CycD1 (P11802 whole entry, species assumed): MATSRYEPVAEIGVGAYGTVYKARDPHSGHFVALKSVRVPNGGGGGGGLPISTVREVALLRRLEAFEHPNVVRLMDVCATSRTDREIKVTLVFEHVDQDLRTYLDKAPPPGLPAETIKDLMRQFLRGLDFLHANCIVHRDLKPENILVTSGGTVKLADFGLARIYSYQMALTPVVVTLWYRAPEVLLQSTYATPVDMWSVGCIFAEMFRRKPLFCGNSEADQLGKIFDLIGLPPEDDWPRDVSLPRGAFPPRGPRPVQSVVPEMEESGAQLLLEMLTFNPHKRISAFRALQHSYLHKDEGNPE
Sequence of CDK4/CycD1 (P24385 whole entry partner, species assumed): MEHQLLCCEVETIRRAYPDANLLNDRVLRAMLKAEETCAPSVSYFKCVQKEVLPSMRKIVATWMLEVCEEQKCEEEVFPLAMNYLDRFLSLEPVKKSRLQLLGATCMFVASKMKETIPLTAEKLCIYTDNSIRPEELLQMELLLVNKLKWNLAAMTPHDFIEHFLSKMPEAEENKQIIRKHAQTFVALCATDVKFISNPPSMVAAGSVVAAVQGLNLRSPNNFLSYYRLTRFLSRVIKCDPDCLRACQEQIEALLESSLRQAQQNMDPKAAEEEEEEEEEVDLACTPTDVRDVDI
Protocol: The tested compounds were subjected to CDK4 and CDK6 kinase IC50 values test.
• (1) Preparing a 1.3× enzyme solution containing enzyme, substrate and cofactor as shown below. • (2) Adding 15 μL of 1.3× enzyme solution to each well and incubating for 30 min at room temperature. • (3) Starting the reaction by adding 5 μL of 4×ATP solution, with each test well containing the listed components and a final volume of 20 μL. • (4) Incubating for 150 minutes and then stopping the reaction by adding 75 μL of buffer (containing 0.5 M EDTA). • (5) Reading the data from each test well by EZ for analysis.
Percentage inhibition was calculated using the read conversion ratio (CR) according to the formula below:
The wells treated with DMSO were used as positive control (positive control) and the wells without enzyme were used as negative control (negative control).

[4] = Preclinical rat pharmacokinetic test; format: in vivo; settings: male SD rats, gavage (p.o.), 10 mg/kg, plasma; for AUC(0-t) / Cmax / Tmax: Sprague-Dawley (SD), rat, po
Protocol: Healthy adult SD rats, male, 6-8 weeks old, weighing 200-300 g. EDTA-Na2 anticoagulant. Analytical balance, animal weight scale, magnetic stirrer, freezing centrifuge, single-channel manual pipette. About 10 mg of the sample to be tested was precisely weighed, the converted 5% DMSO was added to dissolve, and then 10 percent solutol HS-15 and 85% saline were added, ultrasonic treatment was performed, vortex mixed, to obtain the solution having a concentration of 1 mg/mL; freshly prepared before use. Animals were kept in rat cages and fasted (not less than 10 h) the day before the test, but not water fasted; on the day of the test, they were weighed and labeled at the tail. Blank blood was collected before drug administration. Blood was collected from the tail vein. • Route of administration: gavage (p.o.). • Dose: 10 mg/kg • Administration volume: 10 mL/kg • Operation procedure: Hold the rat with the left hand with anti-biting gloves, made it stand upright, extent the 16-gauge gavage needle from the throat in the mouth, and then injected the drug into the stomach when there was no obvious resistance. Before and 0.5 […] and 24 h after the administration of the drug, 0.1 ml of whole blood from the test animal was collected in EDTA-Na2 anticoagulant tubes, which was mixed upside down for 3-4 times and then centrifuged at 10,000 g for 5 min at 4° C. to isolate the plasma, which was stored at -80° C. for testing. Blood was collected from the tail vein. […] Pipetted 25 μL of rat blank plasma in a centrifuge tube respectively, added 25 μL of prepared standard series solution (prepared in methanol), then added 200 μL of internal standard solution (prepared in methanol), vortexed and mixed for 2 min, centrifuged at 4° C., 10,000 g for 10 min. Unknown plasma samples treatment: 25 μL of rat plasma containing drug was aspirated, 25 μL of methanol and 200 μL of internal standard solution were added sequentially, vortexed and mixed for 2 min, and then centrifuged at 4° C. and 10,000 g for 10 min. The supernatant was extracted for LC/MS/MS detection. Shimadzu liquid phase and Triple Quad TM 6500+AB mass spectrometry were utilized to establish a quantitative assay for the compounds to be tested. The pro-drug concentration in plasma was determined. The blood drug concentration-time curves were plotted, and the main pharmacokinetic parameters were calculated using the non-compartment model in winnonlin Phoenix software, and the detailed data were shown in Table 3.

Sequence of CDK6/CyclinD3 (Q00534 whole entry, species assumed): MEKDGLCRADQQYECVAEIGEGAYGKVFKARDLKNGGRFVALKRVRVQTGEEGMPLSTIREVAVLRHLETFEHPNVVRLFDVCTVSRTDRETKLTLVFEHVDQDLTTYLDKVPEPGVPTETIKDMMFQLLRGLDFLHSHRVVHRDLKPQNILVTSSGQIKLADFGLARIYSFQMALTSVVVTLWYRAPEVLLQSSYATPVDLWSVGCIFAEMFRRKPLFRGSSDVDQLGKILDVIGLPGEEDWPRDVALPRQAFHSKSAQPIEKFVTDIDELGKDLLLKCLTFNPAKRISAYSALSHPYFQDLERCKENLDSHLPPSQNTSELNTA
Sequence of CDK6/CyclinD3 (P30281 whole entry partner, species assumed): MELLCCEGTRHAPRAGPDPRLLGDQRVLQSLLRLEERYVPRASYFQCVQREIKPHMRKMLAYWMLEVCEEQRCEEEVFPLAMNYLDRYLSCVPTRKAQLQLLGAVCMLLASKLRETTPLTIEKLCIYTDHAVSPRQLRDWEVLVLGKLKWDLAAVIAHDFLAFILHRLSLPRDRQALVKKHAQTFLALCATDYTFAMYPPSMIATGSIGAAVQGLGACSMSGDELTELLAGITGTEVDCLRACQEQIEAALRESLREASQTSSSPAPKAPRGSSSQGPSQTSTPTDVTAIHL

Structure (SMILES) | IC50 (CDK6/CyclinD3) [nM] | IC50 [1] [nM] | IC50 [2] [nM] | IC50 [3] [nM] | IC50 (CDK4/CycD1) [nM] | AUC(0-t) [4] [ng·h/mL] | Cmax [4] [ng/mL] | Tmax [4] [h] | HL— [4] [h]
C[C@H]1CCN(C)c2nc3c(F)cc(-c4nc(Nc5ccncc5)ncc4Cl)cc3n21 [TB-137, (S)-5-chloro-4-(9-fluoro-1,4-dimethyl-1,2,3,4-tetrahydrobenzo[4,5]imidazo[1,2-a]pyrimidin-7-yl)-N-(pyridin-4-yl)pyrimidin-2-amine] | 95.2 | ≤ 500 | ≤ 500 | ≤ 500 | 12.7 |  |  |  | 
CC(C)c1c(C(C)(C)O)nc2ccc(-c3nc(N[C@@H]4CCOC[C@H]4O)ncc3Cl)cn12 [TA-25, (3S,4R)-4-((5-chloro-4-(2-(2-hydroxypropan-2-yl)-3-isopropylimidazo[1,2-a]pyridin-6-yl)pyrimidin-2-yl)amino)tetrahydro-2H-pyran-3-ol] |  |  |  |  |  | 4470 | 611 | 3.33 | 1.69
CC(C)N1C(=O)COc2c(F)cc(-c3nc(N[C@@H]4CCOC[C@H]4O)ncc3Cl)cc21 [TA-2, 6-(5-chloro-2-(((3S,4R)-3-hydroxytetrahydro-2H-pyran-4-yl)amino)pyrimidin-4-yl)-8-fluoro-4-isopropyl-2H-benzo[b][1,4]oxazin-3(4H)-one] | 109 | 500 to 2000 | ≤ 500 | ≤ 500 | 42.2 |  |  |  | 
CC(C)n1c(N2CCOC2=O)nc2c(F)cc(-c3nc(N[C@@H]4CCOC[C@H]4O)ncc3C(F)(F)F)cc21 [TB-27] |  |  |  |  |  |  |  |  | 3.69
CN1CCCn2c1nc1c(F)cc(-c3nc(NC4CCN(S(C)(=O)=O)CC4)ncc3Cl)cc12 [TB-43, 5-chloro-4-(9-fluoro-1-methyl-1,2,3,4-tetrahydrobenzo[4,5]imidazo[1,2-a]pyrimidin-7-yl)-N-(1-(methylsulfonyl)piperidin-4-yl)pyrimidin-2-amine] | 200 | ≤ 500 | ≤ 500 | ≤ 500 | 18.6 |  |  |  | 
CCS(=O)(=O)N1CCC(Nc2ncc(Cl)c(-c3cc(F)c4nc(N5CCOC5=O)n(C(C)C)c4c3)n2)CC1 [TB-31] |  | ≤ 500 | ≤ 500 | ≤ 500 |  |  |  |  | 1.34
CC(C)N1CCOc2c(F)cc(-c3nc(NC4CCN(S(C)(=O)=O)CC4)ncc3Cl)cc21 [TA-11, 5-chloro-4-(8-fluoro-4-isopropyl-3,4-dihydro-2H-benzo[b][1,4]oxazin-6-yl)-N-(1-(methylsulfonyl)piperidin-4-yl)pyrimidin-2-amine] | 24.7 | ≤ 500 | ≤ 500 | ≤ 500 | 7.19 |  |  |  | 
CC(C)N1CCOc2c(F)cc(-c3nc(NC4CCCC(C(=O)N(C)C)C4)ncc3Cl)cc21 (centres unmarked) [TA-14, 3-((5-chloro-4-(8-fluoro-4-isopropyl-3,4-dihydro-2H-benzo[b][1,4]oxazin-6-yl)pyrimidin-2-yl)amino)-N,N-dimethylcyclohexane-1-carboxamide] | > 500 |  |  |  | 69.4 |  |  |  | 
CC(C)N1CCOc2c(F)cc(-c3nc(N[C@@H]4CCOC[C@H]4O)ncc3Cl)cc21 [TA-1] | 23.6 | ≤ 500 | ≤ 500 | ≤ 500 | 0.849 |  |  |  | 
CC(C)N1CCOc2c(F)cc(-c3nc(NC4CCN(S(C)(=O)=O)CC4)ncc3F)cc21 [TA-6, 5-fluoro-4-(8-fluoro-4-isopropyl-3,4-dihydro-2H-benzo[b][1,4]oxazin-6-yl)-N-(1-(methylsulfonyl)piperidin-4-yl)pyrimidin-2-amine] | 13.7 | ≤ 500 | ≤ 500 | ≤ 500 | 4.29 |  |  |  | 
CC(=O)N1CCC[C@@H](Nc2ncc(Cl)c(-c3cc(F)c4c(c3)N(C(C)C)CCO4)n2)C1 [TA-16, (R)-1-(3-((5-chloro-4-(8-fluoro-4-isopropyl-3,4-dihydro-2H-benzo[b][1,4]oxazin-6-yl)pyrimidin-2-yl)amino)piperidin-1-yl)ethan-1-one] | 99.1 |  |  |  | 15.3 |  |  |  | 
CC(C)N1CCOc2c(F)cc(-c3nc(N[C@@H]4CCC[C@H](NS(C)(=O)=O)C4)ncc3Cl)cc21 [TA-17] | 83.4 |  |  |  | 22.7 |  |  |  | 
CC(C)C(=O)N(c1cc(F)cc(-c2nc(N[C@@H]3CCOC[C@H]3O)ncc2Cl)c1)C(C)C [TA-20] | 319 |  |  |  | 108 |  |  |  | 
CC(C)N1CCOc2c(F)cc(-c3nc(NC4CCCC(C(=O)N(C)C)C4)ncc3F)cc21 (centres unmarked) [TA-7, 3-((5-fluoro-4-(8-fluoro-4-isopropyl-3,4-dihydro-2H-benzo[b][1,4]oxazin-6-yl)pyrimidin-2-yl)amino)-N,N-dimethylcyclohexane-1-carboxamide] | > 500 | ≤ 500 | ≤ 500 | ≤ 500 | 17.7 |  |  |  | 
CC(C)c1c(C(C)(C)O)nc2c(F)cc(-c3nc(N[C@@H]4CCOC[C@H]4O)ncc3Cl)cn12 [TA-27, (3S,4R)-4-((5-chloro-4-(8-fluoro-2-(2-hydroxypropan-2-yl)-3-isopropylimidazo[1,2-a]pyridin-6-yl)pyrimidin-2-yl)amino)tetrahydro-2H-pyran-3-ol] | 203 |  |  |  | 21.8 |  |  |  | 
CC(C)N1CCOc2c(F)cc(-c3nc(N[C@@H]4CCOC[C@H]4O)ncc3F)cc21 [TA-5, (3S,4R)-4-((5-fluoro-4-(8-fluoro-4-isopropyl-3,4-dihydro-2H-benzo[b][1,4]oxazin-6-yl)pyrimidin-2-yl)amino)tetrahydro-2H-pyran-3-ol] | 30.2 | ≤ 500 | ≤ 500 | ≤ 500 | 3.11 |  |  |  | 
CC1CC(=O)N(C)c2nc3c(F)cc(-c4nc(N[C@@H]5CCOC[C@H]5O)ncc4Cl)cc3n21 (stereo partly drawn) [TA-53, 7-(5-chloro-2-(((3S,4R)-3-hydroxytetrahydro-2H-pyran-4-yl)amino)pyrimidin-4-yl)-9-fluoro-1,4-dimethyl-3,4-dihydrobenzo[4,5]imidazo[1,2-a]pyrimidin-2(1H)-one] |  |  |  |  |  | 3530 | 920 | 1 | 1.77
CC(C)N1CCOc2c(F)cc(-c3ccnc(N[C@@H]4CCOC[C@H]4O)n3)cc21 [TA-4, (3S,4R)-4-((4-(8-fluoro-4-isopropyl-3,4-dihydro-2H-benzo[b][1,4]oxazin-6-yl)pyrimidin-2-yl)amino)tetrahydro-2H-pyran-3-ol] | 116 | ≤ 500 | ≤ 500 | ≤ 500 | 10.4 |  |  |  | 
COc1ncc(-c2nc(N[C@@H]3CCOC[C@H]3O)ncc2F)c2c1CCC2 [TA-34, (3S,4R)-4-((5-fluoro-4-(1-methoxy-6,7-dihydro-5H-cyclopenta[c]pyridin-4-yl)pyrimidin-2-yl)amino)tetrahydro-2H-pyran-3-ol] | 2580 |  |  |  | 729 |  |  |  | 
CC(C)n1c(N2CCOC2=O)nc2c(F)cc(-c3nc(N[C@@H]4CCOC[C@H]4O)ncc3Cl)cc21 [TB-24] |  |  |  |  |  |  |  |  | 3.14
